# Columns and labels:
# PH-HFpEF patient = assay: HELP Study: rest and exercise right heart catheterization after 24-hour i.v. levosimendan, Patient 019-002; type: in vivo, human; details: single 24-hour open label lead-in infusion
# Procedure: (§1) During the HELP Study, as described in PCT International Application Publication No. WO 2021/126884, the entire contents of which are incorporated by reference, Patient 019-002 was administered empagliflozin shortly after beginning levosimendan therapy.
# Specifically, Patient 019-002 had established PH-HFpEF and was initially enrolled into the HELP Trial. The diagnosis of PH-HFpEF was confirmed by rest and exercise right heart catheterization. […] The PCWP of 35 mmHg at rest increased with exercise to 55 mmHg at baseline. […] Thus, levosimendan produced a 40% fall in resting PCWP and a 33% fall in exercise PCWP. In addition, at baseline the CVP was 18 mmHg and increased to 30 mmHg with exercise. Following the 24 hours of i.v. levosimendan the CVP fell to 12 mmHg at rest and to 21 mmHg with exercise. Thus, levosimendan produced a 33% fall in resting CVP, and a 30% fall in CVP with exercise. Accordingly, the response of Patient 019-002 to levosimendan treatment was typical of other patients in the study in terms of improvements to their hemodynamic profile (FIG. 1).
# PH-HFpEF patients = assay: HELP Study: 6-minute walk distance; type: in vivo, human; details: PH-HFpEF patients of the HELP Study, on average, levosimendan alone
# Procedure: 6 MWT is the abbreviation for six-minute walk test. 6 MWT is a performance-based test used to measure functional exercise capacity. The 6 MWT measures the distance an individual is able to walk over a total of 6 minutes at a constant and normal pace. (Vandoni et al. 2018)
# as §1
# [1] = cited from earlier work
# [2] = follow-ups two weeks after treatment with levosimendan; cited from earlier work
# [3] = in vivo; cited from earlier work
# [4] = test system: phosphodiesterase-3 (PDE3); details: cited from earlier work
# PDE4 = details: cited from earlier work
# [5] = test system: whole cardiomyocytes and isolated contractile apparatus preparations; details: cited from earlier work
# heart failure patients = details: cited from earlier work
smiles,measurement,setting,value
C[C@@H]1CC(=O)NN=C1c1ccc(NN=C(C#N)C#N)cc1 [levosimendan],"change in pulmonary capillary wedge pressure (PCWP), FIG. 1",PH-HFpEF patient,decrease
same,improvement of 6-minute walk distance,PH-HFpEF patients,approximately 29 m
same,plasma concentration profile of the levosimendan metabolite OR-1896,[1]; subcutaneous compared with intravenous administration of levosimendan,similar
same,plasma concentrations of levosimendan,[1]; subcutaneous compared with intravenous administration,lower plasma concentrations
"C[C@@H]1CC(=O)NN=C1c1ccc(N)cc1 [OR-1855, (R)-6-(4-aminophenyl)-5-methyl-4,5-dihydropyridazin-3(2H)-one]",concentrations of metabolite at follow-up,[2],detectable
same,hemodynamic and pharmacologic properties / activity compared with levosimendan,[3],limited activity
"CC(=O)Nc1ccc(C2=NNC(=O)C[C@H]2C)cc1 [OR-1896, (R)-N-(4-(4-methyl-6-oxo-1,4,5,6-tetrahydropyridazin-3-yl)phenyl) acetamide]",potency in the inhibition of PDE3 compared with levosimendan,[4],profoundly less potent
same,potency in the inhibition of PDE4 compared with levosimendan,PDE4,profoundly less potent
same,"inotropic effects, potency compared with levosimendan",[5],equipotent
same,concentrations of metabolite at follow-up,[2],detectable
same,hemodynamic and pharmacologic properties / activity compared with levosimendan,[3],similar
OC[C@H]1O[C@@H](c2ccc(Cl)c(Cc3ccc(O[C@H]4CCOC4)cc3)c2)[C@H](O)[C@@H](O)[C@@H]1O [empagliflozin],6-minute walk distance or quality of life,"heart failure patients; EMBRACE HF, PH-HFpEF patients, empagliflozin alone",did not demonstrate a meaningful difference
same,exercise capacity as measured by change in six-minute walk distance,"heart failure patients; EMPERIAL-Preserved and EMPERIAL-Reduced trials, empagliflozin alone",neither of these trials showed an improvement
same,exercise capacity as measured by a difference in 6 MWD,"heart failure patients; HFpEF, HFrEF or PH-HFpEF patients, empagliflozin alone (EMPERIAL-Preserved, EMPERIAL-Reduced, EMBRACE HF)",did not demonstrate a material change
